Laboratory results taken from paper PMC4243055 (Cell, 2014).

Molecular target: T1, Cdc25 phosphatase (CnCdc25) (Cryptococcus neoformans, UniProt J9VTJ5)
T1 sequence (J9VTJ5 442-662): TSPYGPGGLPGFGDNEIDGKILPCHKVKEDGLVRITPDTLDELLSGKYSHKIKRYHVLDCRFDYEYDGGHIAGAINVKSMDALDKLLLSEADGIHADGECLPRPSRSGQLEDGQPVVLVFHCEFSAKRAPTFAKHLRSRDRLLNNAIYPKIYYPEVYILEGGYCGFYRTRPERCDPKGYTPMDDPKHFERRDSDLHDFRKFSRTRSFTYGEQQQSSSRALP
Assay: in vitro phosphatase assay with OMFP substrate, Michaelis-Menten kinetics
Format: biochemical

O=C1C(NCCN2CCOCC2)=C(Cl)C(=O)c2ncccc21 [NSC 663284, 7-Chloro-6-(2-morpholin-4-ylethylamino)-quinoline-5,8-dione] was tested, and the Ki was roughly 250 µM.
